Assay results published in the CheMixHub ionic liquid set.
Where “and” joins values, the source holds several entries; their conditions need not be identical. Equal entries are not always repeated. ± gives the uncertainty stated by the source.

Test: xn = mol fraction of the nth substance listed
[1] = 308.15 K, 101 kPa, x1 = 6.584e-05
[2] = 308.15 K, 101 kPa, x1 = 0.0001326

CCCC[n+]1ccn(C)c1.[Br-] + O
viscosity (288.15 K, 100 kPa, x1 = 0.00126): 1.159 ± 0.044 mPa·s | viscosity (293.15 K, 100 kPa, x1 = 0.0009002): 1.033 ± 0.032 mPa·s | viscosity (293.15 K, 100 kPa, x1 = 0.001799): 1.057 ± 0.032 mPa·s | viscosity (293.15 K, 100 kPa, x1 = 0.002696): 1.069 ± 0.032 mPa·s | viscosity (298.15 K, 100 kPa, x1 = 0.0001802): 0.916 ± 0.043 mPa·s | viscosity (298.15 K, 100 kPa, x1 = 0.0007203): 0.921 ± 0.043 mPa·s | viscosity (298.15 K, 100 kPa, x1 = 0.0009002): 0.918 ± 0.031 mPa·s | viscosity (298.15 K, 100 kPa, x1 = 0.00126): 0.93 ± 0.043 mPa·s | viscosity (298.15 K, 100 kPa, x1 = 0.001799): 0.938 ± 0.031 mPa·s | viscosity (298.15 K, 100 kPa, x1 = 0.002696): 1 ± 0.032 mPa·s | viscosity (298.15 K, 101 kPa, x1 = 1.982e-05): 0.888 ± 0.019 mPa·s | viscosity (298.15 K, 101 kPa, x1 = 3.243e-05): 0.889 ± 0.019 mPa·s | electrical conductivity (298.15 K, 101 kPa, x1 = 0.00999): 3.16 ± 0.01 S/m | electrical conductivity (298.15 K, 101 kPa, x2 = 0.9094): 6.16 ± 0.01 S/m | electrical conductivity (298.15 K, 101 kPa, x2 = 0.94): 6.13 ± 0.01 S/m | electrical conductivity (298.15 K, 101 kPa, x2 = 0.9612): 5.7 ± 0.01 S/m | electrical conductivity (298.15 K, 101 kPa, x2 = 0.9773): 4.79 ± 0.01 S/m | viscosity (298.15 K, 101.3 kPa, x1 = 0.000902): 0.911 ± 0.024 mPa·s | viscosity (298.15 K, 101.3 kPa, x1 = 0.0009056): 0.91 ± 0.024 mPa·s and 0.911 ± 0.024 mPa·s | viscosity (298.15 K, 101.3 kPa, x1 = 0.0009074): 0.911 ± 0.024 mPa·s | viscosity (298.15 K, 101.3 kPa, x1 = 0.000911): 0.91 ± 0.024 mPa·s | viscosity (298.15 K, 101.3 kPa, x1 = 0.00144): 0.933 ± 0.06 mPa·s and 0.936 ± 0.06 mPa·s | viscosity (298.15 K, 101.3 kPa, x1 = 0.001806): 0.934 ± 0.025 mPa·s and 0.935 ± 0.025 mPa·s | viscosity (298.15 K, 101.3 kPa, x1 = 0.001835): 0.923 ± 0.025 mPa·s | viscosity (298.15 K, 101.3 kPa, x1 = 0.001856): 0.932 ± 0.025 mPa·s | viscosity (298.15 K, 101.3 kPa, x1 = 0.0036): 0.966 ± 0.026 mPa·s | viscosity (298.15 K, 101.3 kPa, x1 = 0.003602): 0.961 ± 0.026 mPa·s | viscosity (298.15 K, 101.3 kPa, x1 = 0.003605): 0.961 ± 0.026 mPa·s and 0.963 ± 0.026 mPa·s | viscosity (298.15 K, 101.3 kPa, x1 = 0.005384): 0.994 ± 0.027 mPa·s | viscosity (298.15 K, 101.3 kPa, x1 = 0.005411): 0.997 ± 0.027 mPa·s and 0.998 ± 0.027 mPa·s | viscosity (298.15 K, 101.3 kPa, x1 = 0.005432): 1.004 ± 0.027 mPa·s | viscosity (303.15 K, 100 kPa, x1 = 0.0009002): 0.823 ± 0.031 mPa·s | viscosity (303.15 K, 100 kPa, x1 = 0.001799): 0.84 ± 0.031 mPa·s | viscosity (303.15 K, 100 kPa, x1 = 0.002696): 0.905 ± 0.031 mPa·s | viscosity (303.15 K, 100 kPa, x1 = 0.05): 2 ± 0.2 mPa·s | viscosity (303.15 K, 100 kPa, x1 = 0.0992): 3.31 ± 0.33 mPa·s | viscosity (303.15 K, 100 kPa, x1 = 0.3882): 31.2 ± 3.1 mPa·s | viscosity (308.15 K, 100 kPa, x1 = 0.0001802): 0.751 ± 0.043 mPa·s | viscosity (308.15 K, 100 kPa, x1 = 0.0007203): 0.756 ± 0.043 mPa·s | viscosity (308.15 K, 100 kPa, x1 = 0.0009002): 0.753 ± 0.031 mPa·s | viscosity (308.15 K, 100 kPa, x1 = 0.00126): 0.763 ± 0.043 mPa·s | viscosity (308.15 K, 100 kPa, x1 = 0.001799): 0.758 ± 0.031 mPa·s | viscosity (308.15 K, 100 kPa, x1 = 0.002696): 0.795 ± 0.031 mPa·s | viscosity (308.15 K, 101 kPa, x1 = 3.243e-05): 0.723 ± 0.016 mPa·s | electrical conductivity [1]: 0.0466 ± 0.00047 S/m | viscosity [1]: 0.727 ± 0.015 mPa·s | viscosity (308.15 K, 101 kPa, x1 = 6.667e-05): 0.727 ± 0.016 mPa·s | electrical conductivity [2]: 0.0915 ± 0.00093 S/m | viscosity [2]: 0.735 ± 0.016 mPa·s | viscosity (308.15 K, 101.3 kPa, x1 = 0.000902): 0.738 ± 0.02 mPa·s | viscosity (308.15 K, 101.3 kPa, x1 = 0.0009056): 0.735 ± 0.02 mPa·s and 0.736 ± 0.02 mPa·s | viscosity (308.15 K, 101.3 kPa, x1 = 0.0009074): 0.737 ± 0.02 mPa·s | viscosity (308.15 K, 101.3 kPa, x1 = 0.000911): 0.735 ± 0.02 mPa·s | viscosity (308.15 K, 101.3 kPa, x1 = 0.001806): 0.752 ± 0.02 mPa·s | viscosity (308.15 K, 101.3 kPa, x1 = 0.001835): 0.746 ± 0.02 mPa·s and 0.747 ± 0.02 mPa·s | viscosity (308.15 K, 101.3 kPa, x1 = 0.001856): 0.75 ± 0.02 mPa·s | viscosity (308.15 K, 101.3 kPa, x1 = 0.0036): 0.776 ± 0.021 mPa·s | viscosity (308.15 K, 101.3 kPa, x1 = 0.003602): 0.773 ± 0.021 mPa·s | viscosity (308.15 K, 101.3 kPa, x1 = 0.003605): 0.77 ± 0.021 mPa·s and 0.771 ± 0.021 mPa·s | viscosity (308.15 K, 101.3 kPa, x1 = 0.005384): 0.798 ± 0.021 mPa·s | viscosity (308.15 K, 101.3 kPa, x1 = 0.005411): 0.801 ± 0.021 mPa·s | viscosity (308.15 K, 101.3 kPa, x1 = 0.005432): 0.802 ± 0.021 mPa·s | viscosity (310.15 K, 101.3 kPa, x1 = 0.000902): 0.711 ± 0.019 mPa·s | viscosity (310.15 K, 101.3 kPa, x1 = 0.0009056): 0.707 ± 0.019 mPa·s | viscosity (310.15 K, 101.3 kPa, x1 = 0.0009074): 0.71 ± 0.019 mPa·s | viscosity (310.15 K, 101.3 kPa, x1 = 0.000911): 0.707 ± 0.019 mPa·s | viscosity (310.15 K, 101.3 kPa, x1 = 0.001806): 0.723 ± 0.019 mPa·s | viscosity (310.15 K, 101.3 kPa, x1 = 0.001835): 0.717 ± 0.019 mPa·s and 0.718 ± 0.019 mPa·s | viscosity (310.15 K, 101.3 kPa, x1 = 0.001856): 0.723 ± 0.019 mPa·s | viscosity (310.15 K, 101.3 kPa, x1 = 0.0036): 0.75 ± 0.02 mPa·s | viscosity (310.15 K, 101.3 kPa, x1 = 0.003602): 0.746 ± 0.02 mPa·s | viscosity (310.15 K, 101.3 kPa, x1 = 0.003605): 0.74 ± 0.02 mPa·s and 0.742 ± 0.02 mPa·s | viscosity (310.15 K, 101.3 kPa, x1 = 0.005384): 0.767 ± 0.021 mPa·s | viscosity (310.15 K, 101.3 kPa, x1 = 0.005411): 0.767 ± 0.021 mPa·s | viscosity (310.15 K, 101.3 kPa, x1 = 0.005432): 0.772 ± 0.021 mPa·s | viscosity (313.15 K, 100 kPa, x1 = 0.0009002): 0.676 ± 0.031 mPa·s | viscosity (313.15 K, 100 kPa, x1 = 0.001799): 0.689 ± 0.031 mPa·s | viscosity (313.15 K, 100 kPa, x1 = 0.002696): 0.749 ± 0.031 mPa·s | viscosity (313.15 K, 100 kPa, x1 = 0.3882): 20 ± 2 mPa·s | viscosity (313.15 K, 101.3 kPa, x1 = 0.00144): 0.58 ± 0.1 mPa·s and 0.695 ± 0.06 mPa·s and 0.697 ± 0.06 mPa·s | viscosity (318.15 K, 100 kPa, x1 = 0.0001802): 0.634 ± 0.042 mPa·s | viscosity (318.15 K, 100 kPa, x1 = 0.0007203): 0.64 ± 0.042 mPa·s | viscosity (318.15 K, 100 kPa, x1 = 0.0009002): 0.618 ± 0.031 mPa·s and 0.619 ± 0.031 mPa·s | viscosity (318.15 K, 100 kPa, x1 = 0.00126): 0.646 ± 0.042 mPa·s | viscosity (318.15 K, 100 kPa, x1 = 0.001799): 0.631 ± 0.031 mPa·s | viscosity (318.15 K, 100 kPa, x1 = 0.002696): 0.68 ± 0.031 mPa·s | viscosity (318.15 K, 101.3 kPa, x1 = 0.000902): 0.611 ± 0.016 mPa·s | viscosity (318.15 K, 101.3 kPa, x1 = 0.0009056): 0.608 ± 0.016 mPa·s and 0.609 ± 0.016 mPa·s | viscosity (318.15 K, 101.3 kPa, x1 = 0.0009074): 0.612 ± 0.016 mPa·s | viscosity (318.15 K, 101.3 kPa, x1 = 0.000911): 0.608 ± 0.016 mPa·s | viscosity (318.15 K, 101.3 kPa, x1 = 0.001806): 0.623 ± 0.017 mPa·s | viscosity (318.15 K, 101.3 kPa, x1 = 0.001835): 0.619 ± 0.017 mPa·s | viscosity (318.15 K, 101.3 kPa, x1 = 0.001856): 0.622 ± 0.017 mPa·s | viscosity (318.15 K, 101.3 kPa, x1 = 0.0036): 0.643 ± 0.017 mPa·s | viscosity (318.15 K, 101.3 kPa, x1 = 0.003602): 0.642 ± 0.017 mPa·s | viscosity (318.15 K, 101.3 kPa, x1 = 0.003605): 0.638 ± 0.017 mPa·s and 0.639 ± 0.017 mPa·s | viscosity (318.15 K, 101.3 kPa, x1 = 0.005384): 0.659 ± 0.018 mPa·s and 0.66 ± 0.018 mPa·s | viscosity (318.15 K, 101.3 kPa, x1 = 0.005411): 0.66 ± 0.018 mPa·s | viscosity (318.15 K, 101.3 kPa, x1 = 0.005432): 0.665 ± 0.018 mPa·s | viscosity (323.15 K, 100 kPa, x1 = 0.3882): 14.6 ± 1.5 mPa·s | viscosity (333.15 K, 100 kPa, x1 = 0.05): 1.04 ± 0.1 mPa·s | viscosity (333.15 K, 100 kPa, x1 = 0.0992): 1.66 ± 0.17 mPa·s | viscosity (333.15 K, 100 kPa, x1 = 0.1979): 3.69 ± 0.37 mPa·s | viscosity (333.15 K, 100 kPa, x1 = 0.2517): 4.94 ± 0.5 mPa·s | viscosity (333.15 K, 100 kPa, x1 = 0.3882): 10.6 ± 1.1 mPa·s
